Patent US7291594B2 (Sanwa Kagaku Kenkyusho Co., Ltd., priority 2002, dated 2007)
Where no end group is shown, it is not given here.

What was measured:
trypsin = molecular target: T1, trypsin (Sus scrofa, UniProt P00761); assay: Resistance to trypsin (residual cAMP activity); type: in vitro ADME
T1 construct: purchased Promega V5113
Description: Then, 5 μl of 500 μg/ml trypsin (Promega Cat. No. V5113) was added to 100 μl of the solution, and the mixture was incubated at 37° C. for 1 hour. The reaction was terminated by adding 1200 μl of 71.5% (final 65%) ethanol, and the reaction solution was centrifuged at 15,000 rpm at 4° C. for 5 minutes to recover a supernatant which was then evaporated into dryness. The dried product was dissolved in distilled water and measured for cAMP activity by the method in Test Example 1, to determine the residual activity (%).

mice [1] = assay: Oral glucose tolerance test (OGTT) in mice after nasal administration of GLP-1 derivative; type: in vivo, mouse; set-up: Blood insulin level (5 minutes after glucose administration): unit not given here; settings: for Blood glucose level (area under blood concentration-time curve (AUC0-20 min)) / Blood insulin level (5 minutes after glucose administration): average ± standard error
Description: That is, the GLP-1 derivative was administered via the nose into mice, and evaluated in an oral glucose tolerance test (OGTT) where a change in blood glucose level in the mice after tolerated with glucose was measured.
At the time of the test, the solution was diluted to a predetermined concentration with physiological saline.
(§1) Mice were anesthetized lightly with ether. […] The GLP-1 derivative solution was inhaled by breathing through the nose into the mouse.
(§2) The blood glucose level was determined by collecting several μl blood from a cut in the tail just before the test and 5, 10 and 20 minutes after glucose administration, and measuring the blood with a small blood-glucose-level measuring instrument (Glutest Ace, manufactured by Sanwa Kagaku Kenkyusho Co., Ltd.).
(§3) The blood insulin level was determined by collecting 75 μl blood from an orbital venous plexus with a heparin-treated glass capillary 5 minutes after administration of glucose, then centrifuging the blood and measuring plasma insulin by EIA (Levis Mouse Insulin Kit, manufactured by Shibayagi Co., Ltd.).

mouse Langerhans islet = assay: Insulin secretion stimulating activity using mouse Langerhans islet; type: cell-based; settings: 16.7 mM glucose
dipeptidyl peptidase IV = dipeptidyl peptidase IV (Homo sapiens, UniProt P27487); assay: Resistance to dipeptidyl peptidase IV (residual cAMP activity); type: in vitro ADME
Sequence of dipeptidyl peptidase IV (P27487 whole entry, species assumed): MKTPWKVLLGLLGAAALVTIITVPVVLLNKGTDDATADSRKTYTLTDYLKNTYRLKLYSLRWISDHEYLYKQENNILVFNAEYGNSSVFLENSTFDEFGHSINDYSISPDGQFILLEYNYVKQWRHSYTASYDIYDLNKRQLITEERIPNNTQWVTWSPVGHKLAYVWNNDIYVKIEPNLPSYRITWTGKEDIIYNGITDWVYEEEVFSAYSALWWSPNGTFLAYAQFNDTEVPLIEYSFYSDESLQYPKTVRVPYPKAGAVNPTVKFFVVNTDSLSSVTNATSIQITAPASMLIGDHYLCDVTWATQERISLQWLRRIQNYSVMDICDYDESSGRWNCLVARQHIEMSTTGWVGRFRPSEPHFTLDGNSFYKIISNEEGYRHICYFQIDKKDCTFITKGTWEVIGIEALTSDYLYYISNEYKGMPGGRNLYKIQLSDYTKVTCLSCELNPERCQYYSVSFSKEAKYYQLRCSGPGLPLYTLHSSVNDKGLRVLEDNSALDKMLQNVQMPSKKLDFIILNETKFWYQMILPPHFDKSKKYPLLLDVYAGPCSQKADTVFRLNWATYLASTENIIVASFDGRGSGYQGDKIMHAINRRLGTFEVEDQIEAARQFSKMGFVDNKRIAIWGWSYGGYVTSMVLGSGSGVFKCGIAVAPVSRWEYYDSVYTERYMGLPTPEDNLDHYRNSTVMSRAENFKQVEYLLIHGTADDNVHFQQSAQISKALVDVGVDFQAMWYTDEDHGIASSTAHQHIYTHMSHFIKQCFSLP
Description: Thereafter, the sample was extracted with a 2-fold excess volume of ethanol, centrifuged and evaporated into dryness by an evaporator. The resulting dried product was dissolved in distilled water containing 1% BSA, and its cyclic AMP production activity was measured according to Test Example 1, to calculate the residual activity (%).

mice [2] = assay: Blood glucose lowering activity in mice after subcutaneous administration and intravenous glucose; type: in vivo, mouse; settings: for Blood sugar level 20 minutes after tolerance with glucose: 0.5 g/kg glucose i.v., mouse
mice [3] = assay: OGTT in mice after nasal administration, with or without charge-regulated fat emulsion; type: in vivo, mouse; set-up: unit not given here
Description: The charge-regulated fat emulsion used was prepared according to JP-A 8-27018; that is, a charge-regulated fat emulsion at a final concentration of 8% was obtained by using 2% (w/w) phosphatidyl glycerol (sodium salt), 8% (w/w) neutral oil and 90% (w/w) water.
50 μl of 8% charge-regulated fat emulsion was mixed with 3.56 μl of 1 mM 8S-GLP-1+5R solution and 146.4 μl distilled water to give 2% charge-regulated fat emulsion solution containing 8S-GLP-1+5R at a final concentration of 0.0178 mM.
as §1
as §2, with “10, 20” for “5, 10”, “30” for “20”, “glucose” for “the blood”, “a” for “a small”
as §3, with “capillary 10” for “capillary 5”

human GLP-1 receptor = molecular target: T2, human GLP-1 receptor (Homo sapiens, UniProt P43220); assay: Cyclic AMP-producing activity in human GLP-1 receptor-expressing CHO-K1 cells; type: cell-based
T2 construct: expressed in transfected cells; host or cells: CHO-K1 (Chinese hamster ovary)
T2 sequence (P43220 24-463): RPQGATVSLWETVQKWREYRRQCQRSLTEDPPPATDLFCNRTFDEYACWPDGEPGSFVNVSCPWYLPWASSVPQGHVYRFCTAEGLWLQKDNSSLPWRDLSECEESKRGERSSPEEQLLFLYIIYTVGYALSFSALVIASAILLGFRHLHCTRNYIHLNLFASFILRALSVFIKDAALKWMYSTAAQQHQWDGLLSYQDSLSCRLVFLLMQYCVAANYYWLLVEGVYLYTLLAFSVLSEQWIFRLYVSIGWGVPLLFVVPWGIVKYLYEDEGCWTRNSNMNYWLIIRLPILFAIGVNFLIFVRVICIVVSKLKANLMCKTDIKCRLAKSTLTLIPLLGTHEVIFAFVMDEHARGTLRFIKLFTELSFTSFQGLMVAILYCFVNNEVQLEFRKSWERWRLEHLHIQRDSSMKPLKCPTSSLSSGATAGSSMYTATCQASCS
Description: 10 μl of 5 N hydrochloric acid was added to terminate the incubation.

T1 sequence (P00761 9-231): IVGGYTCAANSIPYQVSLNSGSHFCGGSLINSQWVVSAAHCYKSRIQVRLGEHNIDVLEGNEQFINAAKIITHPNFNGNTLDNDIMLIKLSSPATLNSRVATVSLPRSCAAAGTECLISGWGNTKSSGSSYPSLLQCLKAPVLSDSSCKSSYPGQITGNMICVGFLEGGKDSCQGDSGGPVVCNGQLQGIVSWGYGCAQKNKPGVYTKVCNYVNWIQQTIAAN

Molecule: CC[C@H](C)[C@H](NC(=O)[C@H](Cc1ccccc1)NC(=O)[C@H](CCC(=O)O)NC(=O)[C@H](CCC(N)=O)NC(=O)[C@H](C)NC(=O)[C@H](C)NC(=O)[C@H](CCC(N)=O)NC(=O)CNC(=O)[C@H](CCC(=O)O)NC(=O)[C@H](CC(C)C)NC(=O)[C@H](Cc1ccc(O)cc1)NC(=O)[C@H](CO)NC(=O)[C@H](CO)NC(=O)[C@@H](NC(=O)[C@H](CC(=O)O)NC(=O)[C@H](CO)NC(=O)[C@@H](NC(=O)[C@H](Cc1ccccc1)NC(=O)[C@@H](NC(=O)CNC(=O)[C@H](CCC(=O)O)NC(=O)[C@H](C)NC(=O)[C@@H](N)Cc1c[nH]cn1)[C@@H](C)O)[C@@H](C)O)C(C)C)C(=O)N[C@@H](C)C(=O)N[C@@H](Cc1c[nH]c2ccccc12)C(=O)N[C@@H](CC(C)C)C(=O)N[C@H](C(=O)N[C@@H](CC(N)=O)C(=O)NCC(=O)N[C@@H](CCCNC(=N)N)C(N)=O)C(C)C [26Q34N-GLP-1, [Gln^26, Asn^34]-GLP-1 (7-35)-Arg-NH2]
- Residual activity (%) (trypsin; Trypsin + (37° C., 1 hour, pH 7.8)): 94.8%
- Residual activity (%) (trypsin; Trypsin − (not treated)): 100%

Molecule: GLP-1 (7-36)—NH2 [reference compound]
- Blood glucose level (area under blood concentration-time curve (AUC0-20 min)) (mice [1]; 1.07 nmol/mouse): 697 ± 94 mg·min/dL
- Blood insulin level (5 minutes after glucose administration) (mice [1]; 1.07 nmol/mouse): 662 ± 91
- Blood glucose level (area under blood concentration-time curve (AUC0-20 min)) (mice [1]; 10.7 nmol/mouse): 399 ± 35 mg·min/dL
- Blood insulin level (5 minutes after glucose administration) (mice [1]; 10.7 nmol/mouse): 743 ± 147
- Amount of insulin secreted (mouse Langerhans islet; assay concentration −8 log M): 6.71 ng/islet/30 min
- Amount of insulin secreted (mouse Langerhans islet; assay concentration −9 log M): 5.11 ng/islet/30 min
- Amount of insulin secreted (mouse Langerhans islet; assay concentration −10 log M): 4.11 ng/islet/30 min
- Residual activity (%) (dipeptidyl peptidase IV; DPP IV + (40 μU/μl, 37° C., 60 minutes)): 25%
- Residual activity (%) (dipeptidyl peptidase IV; DPP IV −(not treated)): 100%
- Blood sugar level 20 minutes after tolerance with glucose (mice [2]; 5 μg/kg): 119 mg/dL
- Blood sugar level 20 minutes after tolerance with glucose (mice [2]; 10 μg/kg): 103 mg/dL
- Blood sugar level 20 minutes after tolerance with glucose (mice [2]; 20 μg/kg): 75 mg/dL
- Blood insulin level (10 minutes after glucose administration) (mice [3]; 10.7 nmol/mouse, without charge-regulated fat emulsion): 377 ± 41

Molecule: [Ser^8, Gln^26, Asn^34]-GLP-1 (7-35)-Arg (HSEGTFTSDVSSYLEGQAAQEFIAWLVNGR; ends and bridges not checked) [8S26Q34N-GLP-1]
- insulin secretion stimulating activity compared with naturally occurring GLP-1 (in words) (mouse Langerhans islet; 30 minutes): stronger insulin secretion stimulating activity than that of the naturally occurring GLP-1
- Amount of insulin secreted (mouse Langerhans islet; assay concentration −8 log M): 9.85 ng/islet/30 min
- Amount of insulin secreted (mouse Langerhans islet; assay concentration −9 log M): 6.61 ng/islet/30 min
- Amount of insulin secreted (mouse Langerhans islet; assay concentration −10 log M): 3.64 ng/islet/30 min
- blood glucose lowering activity in mice (in words) (mice [2]): concentration-dependent depression in blood glucose level
- Blood sugar level 20 minutes after tolerance with glucose (mice [2]; 5 μg/kg): 110 mg/dL
- Blood sugar level 20 minutes after tolerance with glucose (mice [2]; 10 μg/kg): 95 mg/dL
- Blood sugar level 20 minutes after tolerance with glucose (mice [2]; 20 μg/kg): 21 mg/dL
- in vitro activity of producing cyclic AMP (in words) (human GLP-1 receptor): the activity was maintained
- Amount of cAMP produced (human GLP-1 receptor; concentration −8 log M): 79.2 pmol/10^5 cell/30 min
- Amount of cAMP produced (human GLP-1 receptor; concentration −9 log M): 76.1 pmol/10^5 cell/30 min
- Amount of cAMP produced (human GLP-1 receptor; concentration −10 log M): 24.2 pmol/10^5 cell/30 min
- Amount of cAMP produced (human GLP-1 receptor; concentration −11 log M): 4.7 pmol/10^5 cell/30 min
- Amount of cAMP produced (human GLP-1 receptor; concentration −12 log M): 0.6 pmol/10^5 cell/30 min

Molecule: [Ser^8]-GLP-1 (7-35)-Arg-Arg-Arg-Arg-Arg-Arg-Arg-Arg-Arg-NH2 (HSEGTFTSDVSSYLEGQAAKEFIAWLVKGRRRRRRRRR-NH2) [8S-GLP-1 + 8R]
- Blood glucose level (area under blood concentration-time curve (AUC0-20 min)) (mice [1]; 1.07 nmol/mouse): 487 ± 32 mg·min/dL
- Blood insulin level (5 minutes after glucose administration) (mice [1]; 1.07 nmol/mouse): 1882 ± 402

Molecule: [Ser^8]-GLP-1 (7-35)-Arg-Arg-Arg-Arg-Arg-Arg-Arg-NH2 (HSEGTFTSDVSSYLEGQAAKEFIAWLVKGRRRRRRR-NH2) [8S-GLP-1 + 6R]
- Blood glucose level (area under blood concentration-time curve (AUC0-20 min)) (mice [1]; 1.07 nmol/mouse): 559 ± 27 mg·min/dL
- Blood insulin level (5 minutes after glucose administration) (mice [1]; 1.07 nmol/mouse): 1633 ± 449

Molecule: [Ser^8]-GLP-1 (7-35)-Arg-Arg-Arg-Arg-Arg-Arg-NH2 (HSEGTFTSDVSSYLEGQAAKEFIAWLVKGRRRRRR-NH2) [8S-GLP-1 + 5R]
- Blood glucose level (area under blood concentration-time curve (AUC0-20 min)) (mice [1]; 1.07 nmol/mouse): 483 ± 26 mg·min/dL
- Blood insulin level (5 minutes after glucose administration) (mice [1]; 1.07 nmol/mouse): 1504 ± 250
- Blood insulin level (10 minutes after glucose administration) (mice [3]; 0.357 nmol/mouse, used in combination with 2% charge-regulated fat emulsion): 560 ± 81
- Blood insulin level (10 minutes after glucose administration) (mice [3]; 0.357 nmol/mouse, without charge-regulated fat emulsion): 506 ± 34

Molecule: [Ser^8]-GLP-1 (7-35)-Arg-Arg-Arg-Arg-Arg-NH2 (HSEGTFTSDVSSYLEGQAAKEFIAWLVKGRRRRR-NH2) [8S-GLP-1 + 4R]
- blood glucose depressing action (in words) (mice [1]): strongest blood glucose depressing action
- Blood glucose level (area under blood concentration-time curve (AUC0-20 min)) (mice [1]; 1.07 nmol/mouse): 388 ± 54 mg·min/dL
- Blood insulin level (5 minutes after glucose administration) (mice [1]; 1.07 nmol/mouse): 1713 ± 430

Molecule: [Ser^8]-GLP-1 (7-35)-Arg-Arg-Arg-Arg-NH2 (HSEGTFTSDVSSYLEGQAAKEFIAWLVKGRRRR-NH2) [8S-GLP-1 + 3R]
- Blood glucose level (area under blood concentration-time curve (AUC0-20 min)) (mice [1]; 1.07 nmol/mouse): 509 ± 92 mg·min/dL
- Blood insulin level (5 minutes after glucose administration) (mice [1]; 1.07 nmol/mouse): 1359 ± 318

Molecule: [Ser^8]-GLP-1 (7-35)-Arg-Arg-Arg-NH2 (HSEGTFTSDVSSYLEGQAAKEFIAWLVKGRRR-NH2) [8S-GLP-1 + 2R]
- Blood glucose level (area under blood concentration-time curve (AUC0-20 min)) (mice [1]; 1.07 nmol/mouse): 535 ± 58 mg·min/dL
- Blood insulin level (5 minutes after glucose administration) (mice [1]; 1.07 nmol/mouse): 957 ± 86

Molecule: [Ser^8]-GLP-1 (7-35)-Arg-Lys-Lys-NH2 (HSEGTFTSDVSSYLEGQAAKEFIAWLVKGRKK-NH2) [8S-GLP-1 + 2K]
- Blood glucose level (area under blood concentration-time curve (AUC0-20 min)) (mice [1]; 1.07 nmol/mouse): 598 ± 63 mg·min/dL
- Blood insulin level (5 minutes after glucose administration) (mice [1]; 1.07 nmol/mouse): 862 ± 150

Molecule: [Ser^8]-GLP-1 (7-35)-Lys-Arg-NH2 (HSEGTFTSDVSSYLEGQAAKEFIAWLVKGKR-NH2) [8S, des36R-GLP-1 + 1KR]
- Blood glucose level (area under blood concentration-time curve (AUC0-20 min)) (mice [1]; 1.07 nmol/mouse): 611 ± 51 mg·min/dL
- Blood insulin level (5 minutes after glucose administration) (mice [1]; 1.07 nmol/mouse): 1349 ± 244

Molecule: [Ser^8]-GLP-1 (7-35)-Lys-Lys-Arg-NH2 (HSEGTFTSDVSSYLEGQAAKEFIAWLVKGKKR-NH2) [8S, des36R-GLP-1 + 2KR]
- Blood glucose level (area under blood concentration-time curve (AUC0-20 min)) (mice [1]; 1.07 nmol/mouse): 564 ± 52 mg·min/dL
- Blood insulin level (5 minutes after glucose administration) (mice [1]; 1.07 nmol/mouse): 1243 ± 309

Molecule: [Ser^8]-GLP-1 (7-35)-Lys-Lys-Lys-Arg-NH2 (HSEGTFTSDVSSYLEGQAAKEFIAWLVKGKKKR-NH2) [8S, des36R-GLP-1 + 3KR]
- Blood glucose level (area under blood concentration-time curve (AUC0-20 min)) (mice [1]; 1.07 nmol/mouse): 557 ± 53 mg·min/dL
- Blood insulin level (5 minutes after glucose administration) (mice [1]; 1.07 nmol/mouse): 1176 ± 233

Molecule: [Ser^8]-GLP-1 (7-35)-Lys-Lys-Lys-Lys-Lys-Arg-NH2 (HSEGTFTSDVSSYLEGQAAKEFIAWLVKGKKKKKR-NH2) [8S, des36R-GLP-1 + 5KR]
- blood glucose depressing action (in words) (mice [1]): strongest blood glucose depressing action
- Blood glucose level (area under blood concentration-time curve (AUC0-20 min)) (mice [1]; 1.07 nmol/mouse): 404 ± 71 mg·min/dL
- Blood insulin level (5 minutes after glucose administration) (mice [1]; 1.07 nmol/mouse): 2229 ± 346

Molecule: [Ser^8]-GLP-1 (7-35)-Lys-Lys-Lys-Lys-Lys-Lys-Lys-Arg-NH2 (HSEGTFTSDVSSYLEGQAAKEFIAWLVKGKKKKKKKR-NH2) [8S, des36R-GLP-1 + 7KR]
- Blood glucose level (area under blood concentration-time curve (AUC0-20 min)) (mice [1]; 1.07 nmol/mouse): 457 ± 69 mg·min/dL
- Blood insulin level (5 minutes after glucose administration) (mice [1]; 1.07 nmol/mouse): 1604 ± 344

Molecule: [Ser^8]-GLP-1 (7-35)-Lys-Lys-Lys-Lys-Lys-Lys-Lys-Lys-Lys-Lys-Arg-NH2 (HSEGTFTSDVSSYLEGQAAKEFIAWLVKGKKKKKKKKKKR-NH2) [8S, des36R-GLP-1 + 10KR]
- Blood glucose level (area under blood concentration-time curve (AUC0-20 min)) (mice [1]; 1.07 nmol/mouse): 492 ± 106 mg·min/dL
- Blood insulin level (5 minutes after glucose administration) (mice [1]; 1.07 nmol/mouse): 2379 ± 520
